≈ marks a conversion by molar mass, not a printed value. Where two headings read alike, the source gives them in different places.
Experiments:
[1] = tested on: S. aureus 29213; assay: MIC, broth dilution method, S. aureus; type: cell-based
Protocol: (§1) Minimum Inhibition Concentration (MIC), Broth Dilution Method:
(§2) The compounds of the present invention were tested against an assortment of Gram positive and Gram negative organisms using standard microtitration techniques well known to those skilled in the art. Cultures of bacteria are initially brought up from the freezer by streaking a loopful onto agar plates under the appropriate conditions. For instance bacterial stocks are streaked onto chocolate agar and then incubated for 18 hours at 35-37° C. in a 5% CO2 incubator. Five to ten colonies are picked from the chocolate agar plate for subculture to Brain-Heart infusion (BHI) broth, Mueller Hinton broth, or BHI containing 4% serum and incubated under the appropriate conditions. The ability of the test compound to act as an antimicrobial is determined by the ability to inhibit bacterial growth in vitro. The optical density of the culture of organisms in the presence of an active compound is compared to the optical density of the same organism untreated. The activity of the compounds is described as either negative or the lowest concentration inhibiting growth (Minimum Inhibitory Concentration [MIC]).

[2] = tested on: S. pneumoniae 11733; assay: MIC, broth dilution method, S. pneumoniae; type: cell-based
Protocol: as §1, §2

[3] = tested on: H. influenzae 43095; assay: MIC, broth dilution method, H. influenzae; type: cell-based
Protocol: as §1, §2

[4] = tested on: E. coli 43888; assay: MIC, broth dilution method, E. coli; type: cell-based
Protocol: as §1, §2

[5] = Staphylococcus aureus, 29213, Gram-positive bacteria, in vitro, broth dilution, read-out: MIC S. aureus 29213
[6] = Streptococcus pneumoniae, 11733, Gram-positive bacteria, in vitro, broth dilution, read-out: MIC S. pneumoniae 11733
[7] = Haemophilus influenzae, 43095, Gram-negative bacteria, in vitro, broth dilution, read-out: MIC H. influenzae 43095
[8] = Escherichia coli, 43888, Gram-negative bacteria, in vitro, broth dilution, read-out: MIC E. coli 43888

Compound | melting point | MIC [1, 5] [µg/mL] | MIC [2, 6] [µg/mL] | MIC [3, 7] [µg/mL] | MIC [4, 8] [µg/mL] | further results
Cc1ccc(Oc2ccc(-c3ccsc3)cc2O)c(O)c1 | 143 to 145 °C | – | – | – | – | –
Nc1nnc(-c2ccccc2Oc2ccc(F)cc2O)s1 [Example 22, 2-[2-(5-Amino-[1,3,4]thiadiazol-2-yl)-phenoxy]-5-fluoro-phenol] | 250 to 255 °C (dec.) | 12.5 (≈ 41.2 µM) | 25 (≈ 82.4 µM) | > 25 | > 25 | –
Cc1ccc(Oc2ccccc2-c2noc(=O)[nH]2)c(O)c1 | 213 to 214 °C | – | – | – | – | –
Cc1ccc(Oc2ccc(-c3noc(=O)[nH]3)cc2)c(O)c1 | 195 to 198 °C | – | – | – | – | –
Oc1cc(Cl)ccc1Oc1ccc(Cl)cc1-c1nnn[nH]1 [Example 19, 5-chloro-2-[4-Chloro-2-(1H-tetrazol-5-yl)-phenoxy]-phenol and 5-chloro-2-[4-chloro-2-(2H-tetrazol-5-yl)-phenoxy]-phenol] | – | 0.125 (≈ 0.387 µM) | 2 (≈ 6.19 µM) | 2 (≈ 6.19 µM) | 4 (≈ 12.4 µM) | –
Cc1ccc(Oc2ccc(C3NCCS3)cc2)c(O)c1 (stereo not shown) [Example 5, 5-Methyl-2-[4-(thiazolidin-2-yl)-phenoxy]-phenol] | 197 to 199 °C | 0.5 (≈ 1.74 µM) | 4 (≈ 13.9 µM) | 0.125 (≈ 0.435 µM) | 4 (≈ 13.9 µM) | –
Cc1ccc(Oc2ccc(-c3ncon3)cc2)c(O)c1 [Example 45, 5-Methyl-2-(4-[1,2,4]oxadiazol-3-yl-phenoxy)-phenol] | – | 0.5 (≈ 1.86 µM) | 1 (≈ 3.73 µM) | 4 (≈ 14.9 µM) | 1 (≈ 3.73 µM) | –
Cc1ccc(Oc2ccccc2/C(N)=N/O)c(O)c1 | 85 to 87 °C | – | – | – | – | –
Cc1ccc(Oc2ccc(-c3nnn[nH]3)cc2)c(O)c1 [Example 13, 5-Methyl-2-[4-(1H-tetrazol-5-yl)-phenoxy]-phenol and 5-methyl-2-[4-(2H-tetrazol-5-yl)-phenoxy]-phenol] | 173 to 175 °C | 7.9 (≈ 29.4 µM) | 7.9 (≈ 29.4 µM) | 2 (≈ 7.46 µM) | 62.5 (≈ 233 µM) | –
N/C(=N\O)c1ccccc1Oc1ccc(F)cc1O | 64 to 65 °C | – | – | – | – | –
CCOC(=O)c1cnn(-c2ccc(Oc3ccc(C)cc3O)cc2)c1 [Example 69, 1-[4-(2-Hydroxy-4-methyl-phenoxy)-phenyl]-1H-pyrazole-4-carboxylic acid ethyl ester] | – | 0.2 (≈ 0.591 µM) | > 25 | > 25 | 1.6 (≈ 4.73 µM) | –
COC(=O)c1cn(-c2ccccc2Oc2ccc(C)cc2O)nn1 | 153 to 155 °C | – | – | – | – | –
Cc1ccc(Oc2ccc(-c3nnc(N)o3)cc2)c(O)c1 [Example 24, 2-[4-(5-Amino-[1,3,4]oxadiazol-2-yl)-phenoxy]-5-methyl-phenol] | – | 0.8 (≈ 2.82 µM) | 12.5 (≈ 44.1 µM) | 12.5 (≈ 44.1 µM) | 6.2 (≈ 21.9 µM) | –
Oc1ccccc1Oc1ccc(-c2ccsc2)cc1O [Example 1, 2-(2-Hydroxy-phenoxy)-5-(thiophen-3-yl)-phenol] | 114 to 116 °C | 4 (≈ 14.1 µM) | 2 (≈ 7.03 µM) | 2 (≈ 7.03 µM) | 15.7 (≈ 55.2 µM) | –
Cc1ccc(Oc2ccc(/C(N)=N/O)cc2)c(O)c1 [Example 30, N-Hydroxy-4-(2-hydroxy-4-methyl-phenoxy)-benzamidine] | – | 4 (≈ 15.5 µM) | 62.5 (≈ 242 µM) | 31.3 (≈ 121 µM) | 0.5 (≈ 1.94 µM) | –
COC(=O)C1CSC(c2ccc(Oc3ccc(C)cc3O)cc2)N1 (stereo not shown) | 134 to 135 °C | – | – | – | – | –
CCOC(=O)c1nc(-c2ccccc2Oc2ccc(F)cc2O)no1 | 82 to 83 °C | – | – | – | – | –
Oc1cc(Cl)ccc1Oc1ccccc1-c1ncon1 [Example 57, 5-Chloro-2-(2-[1,2,4]oxadiazol-3-yl-phenoxy)-phenol] | – | 0.05 (≈ 0.173 µM) | 6.2 (≈ 21.5 µM) | 0.05 (≈ 0.173 µM) | 0.05 (≈ 0.173 µM) | –
CCOC(=O)c1nc(-c2ccccc2Oc2ccc(Cl)cc2O)no1 [Example 51, 3-[2-(4-Chloro-2-hydroxy-phenoxy)-phenyl]-[1,2,4]oxadiazole-5-carboxylic acid ethyl ester] | – | 0.4 (≈ 1.11 µM) | > 25 | 3.1 (≈ 8.59 µM) | 6.2 (≈ 17.2 µM) | –
Oc1cc(F)ccc1Oc1ccc(Cl)cc1-c1ncon1 [Example 44, 2-(4-Chloro-2-[1,2,4]oxadiazol-3-yl-phenoxy)-5-fluoro-phenol] | – | 0.5 (≈ 1.63 µM) | > 32 | 2 (≈ 6.52 µM) | 2 (≈ 6.52 µM) | –

Compound | melting point | MIC [1, 5] [µg/mL] | MIC [2, 6] [µg/mL] | MIC [3, 7] [µg/mL] | MIC [4, 8] [µg/mL] | further results
Cc1ccc(Oc2ccc(-n3cccc3)cc2)c(O)c1 | 95 to 96 °C | – | – | – | – | –
Cc1ccc(Oc2ccccc2-c2noc(C(=O)O)n2)c(O)c1 [Example 37, 3-[2-(2-Hydroxy-4-methyl-phenoxy)-phenyl]-[1,2,4]oxadiazole-5-carboxylic acid] | – | 0.125 (≈ 0.4 µM) | 8 (≈ 25.6 µM) | 0.5 (≈ 1.6 µM) | 0.5 (≈ 1.6 µM) | –
Cc1ccc(Oc2ccc([N+](=O)[O-])cc2-c2ncon2)c(O)c1 | 159 to 160 °C | – | – | – | – | –
CCOC(=O)c1cnn(-c2ccccc2Oc2ccc(C)cc2O)c1 | 118 to 119 °C | – | – | – | – | –
Cc1ccc(Oc2ccccc2-c2ncon2)c(O)c1 [Example 43, 5-Methyl-2-(2-[1,2,4]oxadiazol-3-yl-phenoxy)-phenol] | – | 0.5 (≈ 1.86 µM) | 15.7 (≈ 58.5 µM) | 4 (≈ 14.9 µM) | 0.5 (≈ 1.86 µM) | –
Cc1ccc(Oc2ccc(-n3cc(C(=O)O)cn3)cc2)c(O)c1 [Example 71, 1-[4-(2-Hydroxy-4-methyl-phenoxy)-phenyl]-1H-pyrazole-4-carboxylic acid] | – | 3.1 (≈ 9.99 µM) | 12.5 (≈ 40.3 µM) | 25 (≈ 80.6 µM) | > 25 | –
Cc1ccc(Oc2ccc([N+](=O)[O-])cc2-c2noc(C(=O)O)n2)c(O)c1 [Example 39, 3-[2-(2-Hydroxy-4-methyl-phenoxy)-5-nitro-phenyl]-[1,2,4]oxadiazole-5-carboxylic acid] | – | 0.5 (≈ 1.4 µM) | > 32 | 8 (≈ 22.4 µM) | 4 (≈ 11.2 µM) | –
O=C(O)c1nc(-c2ccccc2Oc2ccc(F)cc2O)no1 | 127 to 128 °C | – | – | – | – | –
Oc1ccccc1Oc1ccccc1-c1nnn[nH]1 [Example 20, 2-[2-(1H-Tetrazol-5-yl)-phenoxy]-phenol and 2-[2-(2H-tetrazol-5-yl)-phenoxy]-phenol] | – | 0.25 (≈ 0.983 µM) | 4 (≈ 15.7 µM) | 4 (≈ 15.7 µM) | 2 (≈ 7.87 µM) | –
Oc1cc(F)ccc1Oc1ccccc1-c1ncon1 [Example 42, 5-Fluoro-2-(2-[1,2,4]oxadiazol-3-yl-phenoxy)-phenol] | – | 1 (≈ 3.67 µM) | > 32 | 1 (≈ 3.67 µM) | 1 (≈ 3.67 µM) | –
O=C(O)c1nc(-c2ccccc2Oc2ccc(Cl)cc2O)no1 [Example 54, 3-[2-(4-Chloro-2-hydroxy-phenoxy)-phenyl]-[1,2,4]oxadiazole-5-carboxylic acid] | – | 0.05 (≈ 0.15 µM) | 3.1 (≈ 9.32 µM) | 0.2 (≈ 0.601 µM) | 0.2 (≈ 0.601 µM) | –
Cc1ccc(Oc2ccc([N+](=O)[O-])cc2-c2nnn[nH]2)c(O)c1 [Example 16, 5-Methyl-2-[4-nitro-2-(1H-tetrazol-5-yl)-phenoxy]-phenol and 5-methyl-2-[4-nitro-2-(2H-tetrazol-5-yl)-phenoxy]-phenol] | – | 2 (≈ 6.38 µM) | 7.9 (≈ 25.2 µM) | 31.3 (≈ 99.9 µM) | 31.3 (≈ 99.9 µM) | –
Oc1cc(F)ccc1Oc1ccc(Cl)cc1-c1nnn[nH]1 [Example 18, 2-[4-Chloro-2-(1H-tetrazol-5-yl)-phenoxy]-5-fluoro-phenol and 2-[4-chloro-2-(2H-tetrazol-5-yl)-phenoxy]-5-fluoro-phenol] | – | 0.125 (≈ 0.408 µM) | 0.25 (≈ 0.815 µM) | 4 (≈ 13 µM) | 7.9 (≈ 25.8 µM) | –
Oc1cc(F)ccc1Oc1ccc(-c2ccco2)cc1O [Example 12, 5-(Furan-2-yl)-2-(4-fluoro-2-hydroxy-phenoxy)-phenol] | – | 4 (≈ 14 µM) | 0.5 (≈ 1.75 µM) | 7.9 (≈ 27.6 µM) | 2 (≈ 6.99 µM) | –
Cc1ccc(Oc2ccc(NN)cc2)c(O)c1 [Example 67, 2-(4-Hydrazino-phenoxy)-5-methyl-phenol] | – | 0.1 (≈ 0.434 µM) | 6.2 (≈ 26.9 µM) | 0.1 (≈ 0.434 µM) | 0.4 (≈ 1.74 µM) | –
Cc1ccc(Oc2ccc(-c3noc(C(=O)O)n3)cc2)c(O)c1 [Example 40, 3-[4-(2-Hydroxy-4-methyl-phenoxy)-phenyl]-[1,2,4]oxadiazole-5-carboxylic acid] | – | 4 (≈ 12.8 µM) | 16 (≈ 51.2 µM) | 4 (≈ 12.8 µM) | 8 (≈ 25.6 µM) | –
Cc1ccc(Oc2ccccc2NN)c(O)c1 [Example 66, 2-(2-Hydrazino-phenoxy)-5-methyl-phenol] | – | – | – | – | – | MIC ([1]; Staphylococcus aureus, 29213, read-out: MIC S. aureus 29213): 0.1 µg/mL (≈ 0.434 µM); MIC ([2]; Streptococcus pneumoniae, 11733, read-out: MIC S. pneumoniae 11733): 3.1 µg/mL (≈ 13.5 µM); MIC ([3]; Haemophilus influenzae, 43095, read-out: MIC H. influenzae 43095): 0.1 µg/mL (≈ 0.434 µM); MIC ([4]; Escherichia coli, 43888, read-out: MIC E. coli 43888): 0.8 µg/mL (≈ 3.47 µM)
Cc1ccc(Oc2ccc(-c3ccco3)cc2O)c(O)c1 [Example 4, 2-(2-Hydroxy-4-methyl-phenoxy)-5-(furan-2-yl)-phenol] | – | 2 (≈ 7.08 µM) | 1 (≈ 3.54 µM) | 7.9 (≈ 28 µM) | 0.5 (≈ 1.77 µM) | –
COC(=O)c1cn(-c2ccc(Oc3ccc(C)cc3O)cc2)nn1 | 148 to 151 °C | – | – | – | – | –
